“Also recorded” adds a separate entry of the source.
Tested on: human MDA-MB-231 breast tumor cells
Experiment: cGMP assay (intracellular cGMP, immunoassay)
Assay type: cell-based
Conditions: treated for 30 minutes, FIG. 1
Method: FIG. 1A illustrates the induction of intracellular cGMP levels in cultured human MDA-MB-231 breast tumor cells treated for 30 minutes with compound 2f. […] The + indicates the effects of a positive control, sulindac sulfide tested at 100 μM. The cells were treated for 30 minutes prior to measuring intracellular cGMP levels by immunoassay. The * indicates statistical significance with p<0.05.
Cells were seeded at a density of 1×10^6 cells per 10 cm tissue culture dish, incubated for 48 hours, and treated with the specified compound or vehicle control. After 30 minutes of treatment, cells were lysed and assayed for cGMP content using the cGMP Direct Biotrak EIA kit (GE Biosciences). The assay was performed according to the manufacturer's specifications. Optical density was measured at 630 nm using a Synergy4 (BioTek) plate reader.

COC(=O)[C@H]1Cc2c([nH]c3ccccc23)[C@H](c2cc(OC)ccc2OC)N1C(=O)CCl [Compound 2f, Methyl (1S,3R)-1-(2,5-dimethoxyphenyl)-2-(2-chloroacetyl)-2,3,4,9-tetrahydro-1H-β-carboline-3-carboxylate]
intracellular cGMP levels: induction; also recorded: increase

From patent US9169247B2, “Tetrahydro-beta-carboline derivatives, synthesis and use thereof” (Southern Research Institute, priority 2009, dated 2015)
